Source: patent US20250109140A1, “5-[5-(PIPERIDIN-4-YL)THIENO[3,2-C]PYRAZOL-2-YL]INDAZOLE DERIVATIVES AND RELATED COMPOUNDS AS MODULATORS FOR SPLICING NUCLEIC ACIDS AND FOR THE TREATMENT OF PROLIFERATIVE DISEASES” (REMIX THERAPUTICS INC., priority 2022, published 2025)
Like-named read-outs stand apart in the source and are kept apart here.

Columns and labels:
Assay type in all cases: cell-based
Target C mRNA = test: Splicing RT-qPCR gene panel, Target C canonical junction (CJ) mRNA; details: Homo sapiens; Table 8; larger gene panel, decrease in CJ mRNA levels
Description: (§1) Compounds described herein were used to modulate RNA transcript abundance in cells. The expression of a target mRNA was measured by detecting the formation of an exon-exon junction in the canonical transcript (CJ). A compound mediated exon-inclusion event was detected by observing an increase in formation of a new junction with an alternative exon (AJ). Real-time qPCR assays were used to detect these splicing switches and interrogate the potency of various compounds towards different target genes. A high-throughput real time quantitative PCR (RT-qPCR) assay was developed to measure these two isoforms of the mRNA (CJ and AJ) for exemplary genes, such as HTT, SMN2, and MYB, together with a control housekeeping gene, GAPDH or GUSB or PPIA, used for normalization. Briefly, the A673 or K562 cell line was treated with various compounds described herein (e.g., compounds of Formula (I)). After treatment, the levels of the HTT, MYB, or SMN2 mRNA targets were determined from each sample of cell lysate by cDNA synthesis followed by qPCR.
(§2) The A673 cell line was cultured in DMEM with 10% FBS. Cells were diluted with full growth media and plated in a 96-well plate (15,000 cells in 100 ul media per well). The plate was incubated at 37° C. with 5% CO2 for 24 hours to allow cells to adhere. An 11-point 3-fold serial dilution of the compounds was made in DMSO then diluted in media in an intermediate plate. Compounds were transferred from the intermediate plate to the cell plate with the top dose at a final concentration of 10 uM in the well. Final DMSO concentration was kept at or below 0.25%. The cell plate was returned to the incubator at 37° C. with 5% CO2 for an additional 24 hours.
(§3) The K562 cell line was cultured in IMDM with 10% FBS. For K562, cells were diluted with full growth media and plated in either a 96-well plate (50,000 cells in 50 uL media per well) or a 384-well plate (8,000-40,000 cells in 45 uL media per well). An 11-point 3-fold serial dilution of the compounds were made in DMSO then diluted in media in an intermediate plate. Compound was transferred from the intermediate plate to the cell plate with the top dose at a final concentration of 10 uM in the well. Final DMSO concentration was kept at or below 0.25%. Final volume was 100 uL for 96-well plate and 50 uL for 384-well plate. The cell plate was then placed in an incubator at 37° C. with 5% CO2 for 24 hours.
(§4) The cells were then gently washed with 50 uL-100 uL cold PBS before proceeding to addition of lysis buffer. 30 uL-50 uL of room temperature lysis buffer with DNAse I (and optionally RNAsin) was added to each well. Cells were shaken/mixed thoroughly at room temperature for 5-10 minutes for lysis to take place and then 3 uL-5 uL of room temperature stop solution was added and wells were shaken/mixed again. After 2-5 minutes, the cell lysate plate was transferred to ice for RT-qPCR reaction setup. The lysates could also be frozen at-80° C. for later use.
(§5) In some cases, a direct lysis buffer was used. An appropriate volume of 3× lysis buffer (10 mM Tris, 150 mM NaCl, 1.5%-2.5% Igepal and 0.1-1 U/uL RNAsin, pH 7.4) was directly added to either K562 or A673 cells in media and mixed by pipetting 3 times. The plates were then incubated at room temperature with shaking/rocking for 20-50 minutes to allow for lysis to take place. After this time, the cell lysate plate was transferred to ice to set up for the RT-qPCR reactions. The lysates could also be frozen at −80° C. for later use.
(§6) To set up 10 uL RT-qPCR reactions, cell lysates were transferred to 384-well qPCR plates containing the master mix according to the table below. The plates were sealed, gently vortexed, and spun down before the run. The volumes were adjusted accordingly in some instances where the reaction was carried in 20 μL. The table below summarizes the components of the RT-qPCR reactions:
(§7) The RT-qPCR reaction was performed using a QuantStudio (ThermoFisher) under the following fast cycling conditions. […]

MYB mRNA = test: Splicing RT-qPCR assay, MYB canonical (CJ) and alternative (AJ) junction mRNA; details: Homo sapiens; for EC50: AC50 = 50% response in AJ mRNA increase
Description: as §1, §2, §3, §4, §5, §6, §7

SMN2 mRNA = test: Splicing RT-qPCR gene panel, SMN2 canonical junction (CJ) mRNA; details: Homo sapiens; Table 8; larger gene panel, decrease in CJ mRNA levels
Description: as §1, §2, §3, §4, §5, §6, §7

HTT mRNA = test: Splicing RT-qPCR assay, HTT canonical (CJ) and alternative (AJ) junction mRNA; details: Homo sapiens; for EC50: AC50 = 50% response in AJ mRNA increase
Description: as §1, §2, §3, §4, §5, §6, §7

[1] = Table 7, RT-qPCR, A673 or K562 cells, 24 hours treatment
[2] = Table 7, IC50 = 50% response in CJ mRNA decrease, RT-qPCR, A673 or K562 cells, 24 hours treatment, read-out: MYB CJ
[3] = Table 8, larger gene panel, decrease in CJ mRNA levels, read-out: MYB CJ IC50
[4] = Table 7, IC50 = 50% response in CJ mRNA decrease, RT-qPCR, A673 or K562 cells, 24 hours treatment, read-out: HTT CJ
[5] = Table 8, larger gene panel, decrease in CJ mRNA levels, read-out: HTT CJ IC50

Row | Compound | IC50 (Target C mRNA) [nM] | EC50 (MYB mRNA; [1]) [nM] | IC50 (MYB mRNA; [2]) [nM] | IC50 (MYB mRNA; [3]) [nM] | IC50 (SMN2 mRNA) [nM] | EC50 (HTT mRNA; [1]) [nM] | IC50 (HTT mRNA; [4]) [nM] | IC50 (HTT mRNA; [5]) [nM]
1 | Cc1cn2nc(-c3nc4sc(C5=CCNCC5)cc4s3)cc(C)c2n1 [Compound 198, 4-(2-{2,8-dimethylimidazo[1,2-b]pyridazin-6-yl}thieno[2,3-d][1,3]thiazol-5-yl)-1,2,3,6-tetrahydropyridine] | 1000 to 10000 | 100 to 1000 | 100 to 1000 | 100 to 1000 | < 100 | 100 to 1000 | < 100 | 100 to 1000
2 | Cc1cn2nc(-c3nc4sc(C5CCNC5)cc4s3)cc(C)c2n1 (stereo not shown) [Compound 197, 3-(2-{2,8-dimethylimidazo[1,2-b]pyridazin-6-yl}thieno [2,3-d][1,3]thiazol-5-yl)pyrrolidine] | 1000 to 10000 | 100 to 1000 | 100 to 1000 | 100 to 1000 | 100 to 1000 | 100 to 1000 | 100 to 1000 | 100 to 1000
3 | Cc1cn2nc(-c3nc4sc(C5CNC5)cc4s3)cc(C)c2n1 [Compound 235, 3-(2-{2,8-dimethylimidazo[1,2-b]pyridazin-6-yl}thieno[2,3-d][1,3]thiazol-5-yl) azetidine] | 1000 to 10000 | 1000 to 10000 | 1000 to 10000 | 1000 to 10000 | 100 to 1000 | 1000 to 10000 | 1000 to 10000 | 1000 to 10000
4 | CN1CCN(c2cc3sc(-c4cc(F)c5nn(C)cc5c4)nc3s2)CC1 [Compound 141, 7-fluoro-2-methyl-5-[5-(4-methylpiperazin-1-yl)thieno[2,3-d][1,3]thiazol-2-yl]indazole] | 1000 to 10000 | 100 to 1000 | 100 to 1000 | 100 to 1000 | < 100 | 100 to 1000 | 100 to 1000 | 100 to 1000
5 | Cn1cc2cc(-c3nc4sc(N5CCNCC5)c(Cl)c4s3)cc(F)c2n1 [Compound 147] | 1000 to 10000 | < 100 | 100 to 1000 | < 100 | < 100 | 100 to 1000 | 100 to 1000 | 100 to 1000
6 | Cn1cc2cc(-c3nc4sc(C5CCNCC5)cc4s3)cc(F)c2n1 [Compound 106, 7-fluoro-2-methyl-5-[5-(piperidin-4-yl)thieno[2,3-d][1,3]thiazol-2-yl]indazole] | < 100 | < 100 | < 100 | < 100 | < 100 | < 100 | < 100 | < 100
7 | Cn1cc2cc(N3Cc4sc(C5CCNCC5)cc4C3=O)ccc2n1 [Compound 1120] | 1000 to 10000 | 1000 to 10000 | 1000 to 10000 | 1000 to 10000 | 100 to 1000 | 1000 to 10000 | 1000 to 10000 | 1000 to 10000

Next, values leading:

Row | IC50 (Target C mRNA) [nM] | EC50 (MYB mRNA; [1]) [nM] | IC50 (MYB mRNA; [2]) [nM] | IC50 (MYB mRNA; [3]) [nM] | IC50 (SMN2 mRNA) [nM] | EC50 (HTT mRNA; [1]) [nM] | IC50 (HTT mRNA; [4]) [nM] | IC50 (HTT mRNA; [5]) [nM] | Compound
8 | 100 to 1000 | 100 to 1000 | 100 to 1000 | 100 to 1000 | < 100 | < 100 | < 100 | < 100 | Cc1cc(-c2nc3sc(C4CCNCC4)cc3s2)cc2cn(C)nc12 [Compound 238, 2,7-dimethyl-5-[5-(piperidin-4-yl)thieno[2,3-d][1,3]thiazol-2-yl]indazole]
9 | 100 to 1000 | 1000 to 10000 | 100 to 1000 | 1000 to 10000 | < 100 | 100 to 1000 | 100 to 1000 | 100 to 1000 | Cn1cc2cc(-c3cn4nc(C5CCNCC5)nc4s3)cc(F)c2n1 [Compound 102, 7-fluoro-2-methyl-5-[2-(piperidin-4-yl)-[1,2,4]triazolo[3,2-b][1,3]thiazol-5-yl]indazole]
10 | 100 to 1000 | 100 to 1000 | 100 to 1000 | 100 to 1000 | < 100 | 100 to 1000 | < 100 | 100 to 1000 | Cc1cn2cc(-c3nc4sc(C5CCNCC5)cc4s3)ccc2n1 [Compound 271, 4-(2-{2-methylimidazo[1,2-a]pyridin-6-yl}thieno[2,3-d][1,3]thiazol-5-yl)piperidine]
11 | 100 to 1000 | 100 to 1000 | 100 to 1000 | 100 to 1000 | < 100 | < 100 | < 100 | < 100 | C[C@@H]1C[C@@H](c2cc3sc(-c4cc(F)c5nn(C)cc5c4)nc3s2)CCN1 (stereo in doubt) [Compound 263, 7-fluoro-2-methyl-5-{5-[(2R,4S)-2-methylpiperidin-4-yl]thieno[2,3-d][1,3]thiazol-2-yl}indazole]
12 | < 100 | < 100 | < 100 | < 100 | < 100 | < 100 | < 100 | < 100 | C[C@@H]1C[C@H](c2cc3sc(-c4cc(F)c5nn(C)cc5c4)nc3s2)CCN1 (single isomer, unassigned) [Compound 192, 7-fluoro-2-methyl-5-[5-(2-methylpiperidin-4-yl)thieno[2,3-d][1,3]thiazol-2-yl]indazole]
13 | 1000 to 10000 | 1000 to 10000 | 1000 to 10000 | 1000 to 10000 | 1000 to 10000 | 1000 to 10000 | 1000 to 10000 | 1000 to 10000 | Cn1cc2c(F)cc(-c3nc4sc(C5CCNCC5)cc4s3)cc2n1 [Compound 131, 4-fluoro-2-methyl-6-[5-(piperidin-4-yl)thieno[2,3-d][1,3]thiazol-2-yl]indazole]
14 | > 10000 | > 10000 | 1000 to 10000 | > 10000 | > 10000 | > 10000 | > 10000 | > 10000 | COc1c(-c2nc3sc(C4CCNCC4)cc3s2)cc(F)c2nn(C)cc12 [Compound 237, 7-fluoro-4-methoxy-2-methyl-5-[5-(piperidin-4-yl)thieno[2,3-d][1,3]thiazol-2-yl]indazole]
15 | 1000 to 10000 | 1000 to 10000 | 1000 to 10000 | 1000 to 10000 | 100 to 1000 | 100 to 1000 | 100 to 1000 | 100 to 1000 | Cc1cc(-c2cc3cn([C@H]4CCNC[C@H]4F)nc3s2)cc2cn(C)nc12 (single isomer, unassigned) [Compound 245]
16 | 100 to 1000 | 100 to 1000 | 100 to 1000 | 100 to 1000 | 100 to 1000 | < 100 | 100 to 1000 | < 100 | Cc1nc2c(F)cc(-c3nc4sc(C5CCNCC5)cc4s3)cc2o1 [Compound 132, 4-fluoro-2-methyl-6-[5-(piperidin-4-yl)thieno[2,3-d][1,3]thiazol-2-yl]-1,3-benzoxazole]
17 | 1000 to 10000 | 100 to 1000 | 100 to 1000 | 100 to 1000 | < 100 | 100 to 1000 | 100 to 1000 | 100 to 1000 | Cn1cc2cc(-c3nc4sc(N5CCNC(C)(C)C5)cc4s3)cc(F)c2n1 [Compound 142, 5-[5-(3,3-dimethylpiperazin-1-yl)thieno[2,3-d][1,3]thiazol-2-yl]-7-fluoro-2-methylindazole]
